# From patent EP0210284B1, “1,3-Dithiol-2-ylidene derivatives” (priority 1985, dated 1987)
# Tested on: Acute Liver Injury Induced by Carbon Tetrachloride
# Assay: Protective effect on acute liver injury induced by carbon tetrachloride
# Assay type: in vivo, mice (ddY mice)
# Settings: 50mg/kg orally in olive oil 6 hours before carbon tetrachloride (0.05ml/kg orally); visual score 0: normal, 2: slightly, 4: distinctly, 6: remarkably injured; n=5; CCl4 alone 6.0
# Method: A test compound was dissolved or suspended in olive oil and administered orally at a dose of 50mg/kg to mice (ddY mice, ? , 23 ± 2g, n=5). After 6 hours, carbon tetrachloride (0.05ml/kg) was administered orally. 24 Hours after the administration of carbon tetrachloride, BSP (sodium sulfobromophthalene; 75mg/kg) was administered intravenously. Thirty minutes later, the cardiac blood was collected, and GPT (glutamic-pyruvic transaminase) activity and the retention rate of BSP in the plasma were measured. Further, the liver injury immediately after the collection of the blood was visually observed and evaluated by the following score for liver damage index. 0: normal 2: Slightly injured 4: distinctly injured 6: remarkably injured
row,SMILES,Liver Damage Index
1,"CC(C)(C)C(=O)C(C(=O)c1ccccc1)=C1SC=CS1 [Compound 9, 2-(1,3-dithiol-2-ylidene)-4,4-dimethyl-1-phenyl-1,3-pentanedione]",0.4
2,"CC(=O)C(C(=O)c1ccc(O)cc1)=C1SC=CS1 [Compound 45, 2-(1,3-dithiol-2-ylidene)-1-(4-hydroxyphenyl)-1,3-butanedione]",0.2
3,"CC(C)CC(=O)C(C(=O)c1ccccc1)=C1SC=CS1 [Compound 8, 2-(1,3-dithiol-2-ylidene)-5-methyl-1-phenyl-1,3-hexanedione]",1.2
4,"CC=CC(=O)C(C(=O)c1ccccc1)=C1SC=CS1 [Compound 11, 2-(1,3-dithiol-2-ylidene)-1-phenyl-4-hexene-1,3-dione]",0.8
5,"CC(=O)C(C(=O)c1ccc2ccccc2n1)=C1SC=CS1 [Compound 30, 2-(1,3-dithiol-2-ylidene)-1-(2-quinolyl)-1,3-butanedione]",2.0
6,"CC(=O)C(C(=O)c1cccs1)=C1SC=CS1 [Compound 24, 2-(1,3-dithiol-2-ylidene)-1-(2-thienyl)-1,3-butanedione]",0
7,"CC(=O)C(C(=O)c1ccco1)=C1SC=CS1 [Compound 23, 2-(1,3-dithiol-2-ylidene)-1-(2-furyl)-1,3-butanedione]",1.0
8,"COc1ccc(C(=O)C(C(=O)c2ccc(OC)cc2)=C2SC=CS2)cc1 [Compound 36, 2-(1,3-dithiol-2-ylidene)-1,3-di(4-methoxyphenyl)-1,3-propanedione]",0
9,"O=C(C(C(=O)c1ccccc1)=C1SC=CS1)c1ccccc1 [Compound 34, 2-(1,3-dithiol-2-ylidene)-1,3-diphenyl-1,3-propanedione]",0.8
10,"CC(=O)C(C(=O)c1ccc([N+](=O)[O-])cc1)=C1SC=CS1 [Compound 19, 2-(1,3-dithiol-2-ylidene)-1-(4-nitrophenyl)-1,3-butanedione]",1.6
11,"CC(=O)C(C(=O)c1ccc[nH]1)=C1SC=CS1 [Compound 25, 2-(1,3-dithiol-2-ylidene)-1-(2-pyrrolyl)-1,3-butanedione]",2.2
12,"CC(=O)C(C(=O)c1cccc2ccccc12)=C1SC=CS1 [Compound 27, 2-(1,3-dithiol-2-ylidene)-1-(1-naphthyl)-1,3-butanedione]",0
13,"CC(=O)C(C(=O)C=Cc1ccccc1)=C1SC=CS1 [Compound 33, 4-(1,3-dithiol-2-ylidene)-1-phenyl-1-hexene-3,5-dione]",4.2
14,"O=C(Cc1ccccc1)C(C(=O)c1ccccc1)=C1SC=CS1 [Compound 37, 2-(1,3-dithiol-2-ylidene)-1,4-diphenyl-1,3-butanedione]",1.8
15,"CC(=O)C(C(=O)c1ccc2ccccc2c1)=C1SC=CS1 [Compound 28, 2-(1,3-dithiol-2-ylidene)-1-(2-naphthyl)-1,3-butanedione]",0

# Same assay, conditions: Mus musculus, po, 24.5 h; 50mg/kg orally 6 hours before carbon tetrachloride (0.05ml/kg orally); retention rate of BSP in plasma 30 minutes after BSP 75mg/kg i.v.; CCl4 alone 0, Normal 100; read-out: % Prophylaxis BSP
row,SMILES,inhibition in vivo at 50 mg/kg
1,"CC(C)(C)C(=O)C(C(=O)c1ccccc1)=C1SC=CS1 [Compound 9, 2-(1,3-dithiol-2-ylidene)-4,4-dimethyl-1-phenyl-1,3-pentanedione]",103%
2,"CC(=O)C(C(=O)c1ccc(O)cc1)=C1SC=CS1 [Compound 45, 2-(1,3-dithiol-2-ylidene)-1-(4-hydroxyphenyl)-1,3-butanedione]",111%
3,"CC(C)CC(=O)C(C(=O)c1ccccc1)=C1SC=CS1 [Compound 8, 2-(1,3-dithiol-2-ylidene)-5-methyl-1-phenyl-1,3-hexanedione]",110%
4,"CC=CC(=O)C(C(=O)c1ccccc1)=C1SC=CS1 [Compound 11, 2-(1,3-dithiol-2-ylidene)-1-phenyl-4-hexene-1,3-dione]",105%
5,"CC(=O)C(C(=O)c1ccc2ccccc2n1)=C1SC=CS1 [Compound 30, 2-(1,3-dithiol-2-ylidene)-1-(2-quinolyl)-1,3-butanedione]",105%
6,"CC(=O)C(C(=O)c1cccs1)=C1SC=CS1 [Compound 24, 2-(1,3-dithiol-2-ylidene)-1-(2-thienyl)-1,3-butanedione]",102%
7,"CC(=O)C(C(=O)c1ccco1)=C1SC=CS1 [Compound 23, 2-(1,3-dithiol-2-ylidene)-1-(2-furyl)-1,3-butanedione]",110%
8,"COc1ccc(C(=O)C(C(=O)c2ccc(OC)cc2)=C2SC=CS2)cc1 [Compound 36, 2-(1,3-dithiol-2-ylidene)-1,3-di(4-methoxyphenyl)-1,3-propanedione]",119%
9,"O=C(C(C(=O)c1ccccc1)=C1SC=CS1)c1ccccc1 [Compound 34, 2-(1,3-dithiol-2-ylidene)-1,3-diphenyl-1,3-propanedione]",112%
10,"CC(=O)C(C(=O)c1ccc([N+](=O)[O-])cc1)=C1SC=CS1 [Compound 19, 2-(1,3-dithiol-2-ylidene)-1-(4-nitrophenyl)-1,3-butanedione]",100%
11,"CC(=O)C(C(=O)c1ccc[nH]1)=C1SC=CS1 [Compound 25, 2-(1,3-dithiol-2-ylidene)-1-(2-pyrrolyl)-1,3-butanedione]",88%
12,"CC(=O)C(C(=O)c1cccc2ccccc12)=C1SC=CS1 [Compound 27, 2-(1,3-dithiol-2-ylidene)-1-(1-naphthyl)-1,3-butanedione]",100%
13,"CC(=O)C(C(=O)C=Cc1ccccc1)=C1SC=CS1 [Compound 33, 4-(1,3-dithiol-2-ylidene)-1-phenyl-1-hexene-3,5-dione]",86%
14,"O=C(Cc1ccccc1)C(C(=O)c1ccccc1)=C1SC=CS1 [Compound 37, 2-(1,3-dithiol-2-ylidene)-1,4-diphenyl-1,3-butanedione]",99%
15,"CC(=O)C(C(=O)c1ccc2ccccc2c1)=C1SC=CS1 [Compound 28, 2-(1,3-dithiol-2-ylidene)-1-(2-naphthyl)-1,3-butanedione]",100%

# Same assay, conditions: Mus musculus, po; 50mg/kg orally 6 hours before carbon tetrachloride (0.05ml/kg orally); plasma GPT about 24.5 hours after CCl4; CCl4 alone 0, Normal 100; read-out: % Prophylaxis p-GPT
row,SMILES,inhibition in vivo at 50 mg/kg
1,"CC(C)(C)C(=O)C(C(=O)c1ccccc1)=C1SC=CS1 [Compound 9, 2-(1,3-dithiol-2-ylidene)-4,4-dimethyl-1-phenyl-1,3-pentanedione]",100%
2,"CC(=O)C(C(=O)c1ccc(O)cc1)=C1SC=CS1 [Compound 45, 2-(1,3-dithiol-2-ylidene)-1-(4-hydroxyphenyl)-1,3-butanedione]",100%
3,"CC(C)CC(=O)C(C(=O)c1ccccc1)=C1SC=CS1 [Compound 8, 2-(1,3-dithiol-2-ylidene)-5-methyl-1-phenyl-1,3-hexanedione]",100%
4,"CC=CC(=O)C(C(=O)c1ccccc1)=C1SC=CS1 [Compound 11, 2-(1,3-dithiol-2-ylidene)-1-phenyl-4-hexene-1,3-dione]",100%
5,"CC(=O)C(C(=O)c1ccc2ccccc2n1)=C1SC=CS1 [Compound 30, 2-(1,3-dithiol-2-ylidene)-1-(2-quinolyl)-1,3-butanedione]",98%
6,"CC(=O)C(C(=O)c1cccs1)=C1SC=CS1 [Compound 24, 2-(1,3-dithiol-2-ylidene)-1-(2-thienyl)-1,3-butanedione]",100%
7,"CC(=O)C(C(=O)c1ccco1)=C1SC=CS1 [Compound 23, 2-(1,3-dithiol-2-ylidene)-1-(2-furyl)-1,3-butanedione]",94%
8,"COc1ccc(C(=O)C(C(=O)c2ccc(OC)cc2)=C2SC=CS2)cc1 [Compound 36, 2-(1,3-dithiol-2-ylidene)-1,3-di(4-methoxyphenyl)-1,3-propanedione]",100%
9,"O=C(C(C(=O)c1ccccc1)=C1SC=CS1)c1ccccc1 [Compound 34, 2-(1,3-dithiol-2-ylidene)-1,3-diphenyl-1,3-propanedione]",100%
10,"CC(=O)C(C(=O)c1ccc([N+](=O)[O-])cc1)=C1SC=CS1 [Compound 19, 2-(1,3-dithiol-2-ylidene)-1-(4-nitrophenyl)-1,3-butanedione]",100%
11,"CC(=O)C(C(=O)c1ccc[nH]1)=C1SC=CS1 [Compound 25, 2-(1,3-dithiol-2-ylidene)-1-(2-pyrrolyl)-1,3-butanedione]",76%
12,"CC(=O)C(C(=O)c1cccc2ccccc12)=C1SC=CS1 [Compound 27, 2-(1,3-dithiol-2-ylidene)-1-(1-naphthyl)-1,3-butanedione]",100%
13,"CC(=O)C(C(=O)C=Cc1ccccc1)=C1SC=CS1 [Compound 33, 4-(1,3-dithiol-2-ylidene)-1-phenyl-1-hexene-3,5-dione]",77%
14,"O=C(Cc1ccccc1)C(C(=O)c1ccccc1)=C1SC=CS1 [Compound 37, 2-(1,3-dithiol-2-ylidene)-1,4-diphenyl-1,3-butanedione]",100%
15,"CC(=O)C(C(=O)c1ccc2ccccc2c1)=C1SC=CS1 [Compound 28, 2-(1,3-dithiol-2-ylidene)-1-(2-naphthyl)-1,3-butanedione]",99%

# Tested on: mice (ddY mice)
# Assay: Acute toxicity test
# Assay type: in vivo
# Settings: oral in olive oil, mortality one week after the administration, n=5
# Method: A test compound was dissolved or suspended in olive oil and administered orally to mice (ddY mice, ? , 23±2g, n=5). The acute toxicity value (LD₅₀) was determined from the mortality one week after the administration.
row,SMILES,acute toxicity value (LD50)
1,"CC(=O)C(C(=O)c1ccc(O)cc1)=C1SC=CS1 [Compound 45, 2-(1,3-dithiol-2-ylidene)-1-(4-hydroxyphenyl)-1,3-butanedione]",at least 2 g
2,"CC(C)CC(=O)C(C(=O)c1ccccc1)=C1SC=CS1 [Compound 8, 2-(1,3-dithiol-2-ylidene)-5-methyl-1-phenyl-1,3-hexanedione]",at least 2 g
3,"CC(=O)C(C(=O)c1cccc2ccccc12)=C1SC=CS1 [Compound 27, 2-(1,3-dithiol-2-ylidene)-1-(1-naphthyl)-1,3-butanedione]",at least 2 g
4,"CC(=O)C(C(=O)c1ccc2ccccc2c1)=C1SC=CS1 [Compound 28, 2-(1,3-dithiol-2-ylidene)-1-(2-naphthyl)-1,3-butanedione]",at least 2 g
